A value given as a limit tells only on which side of the number the result lay.

The record followed here is patent US10947213B1 (Merck Patent GmbH, priority 2015, dated 2021).

For the assay, the target named is T1, TLR7/NFKb HEK cells (Homo sapiens, UniProt Q9NYK1).
T1 construct: expressed in transfected cells; host or cells: HEK cells (TLR7/NFKb reporter line)
T1 sequence (Q9NYK1 27-1049): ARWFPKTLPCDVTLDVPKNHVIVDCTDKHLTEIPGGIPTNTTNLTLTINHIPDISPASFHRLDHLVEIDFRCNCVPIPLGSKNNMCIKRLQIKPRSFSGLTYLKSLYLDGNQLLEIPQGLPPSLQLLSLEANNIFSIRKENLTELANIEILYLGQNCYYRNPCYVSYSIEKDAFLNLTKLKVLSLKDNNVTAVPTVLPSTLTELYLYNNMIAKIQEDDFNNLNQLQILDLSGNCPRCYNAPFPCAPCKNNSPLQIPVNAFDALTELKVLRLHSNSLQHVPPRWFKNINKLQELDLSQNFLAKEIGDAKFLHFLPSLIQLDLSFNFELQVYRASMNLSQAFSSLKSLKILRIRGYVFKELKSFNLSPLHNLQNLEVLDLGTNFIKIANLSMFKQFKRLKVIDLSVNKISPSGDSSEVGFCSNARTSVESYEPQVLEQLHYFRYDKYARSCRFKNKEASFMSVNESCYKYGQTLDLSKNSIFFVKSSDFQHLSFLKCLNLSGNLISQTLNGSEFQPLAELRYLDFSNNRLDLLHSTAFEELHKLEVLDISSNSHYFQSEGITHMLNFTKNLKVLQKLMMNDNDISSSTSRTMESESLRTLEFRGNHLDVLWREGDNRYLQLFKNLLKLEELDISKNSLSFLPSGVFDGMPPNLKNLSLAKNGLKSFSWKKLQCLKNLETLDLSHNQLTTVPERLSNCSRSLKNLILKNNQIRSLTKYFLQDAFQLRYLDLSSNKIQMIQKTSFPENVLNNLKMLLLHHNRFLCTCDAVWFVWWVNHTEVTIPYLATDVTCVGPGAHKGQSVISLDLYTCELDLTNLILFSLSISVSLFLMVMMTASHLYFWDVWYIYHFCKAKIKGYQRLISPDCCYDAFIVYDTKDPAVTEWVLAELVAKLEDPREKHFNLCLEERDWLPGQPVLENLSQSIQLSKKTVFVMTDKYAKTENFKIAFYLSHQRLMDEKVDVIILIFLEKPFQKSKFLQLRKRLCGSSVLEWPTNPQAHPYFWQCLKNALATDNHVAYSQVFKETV
As to the kind of experiment: HEK Cell Assay (TLR7/NFKb reporter, Steady-Glo luciferase readout). The class given is cell-based. Conditions: 30 min compound preincubation, then R*48 agonist for 5 hours, read-out: Potency. The procedure: Example 142: HEK Cell Assay
Into 384 CulturePlates (Corning 3707) was placed 5000 c/w of TLR7/NFKb HEK cells in 30 uL DMEM without Phenil red (gibco #31053) and 10% i.a. FCS and 2 mM L-ZGLutamin. The cells were incubated for 24 h at 37° C., 10% carbon dioxide and 90% relative humidity. 3 uL of controls, standards, and compounds were dispensed into wells, incubated for 30 min then 3 uL of R*48 agonist in 20 mM Hepes was added. After incubation for 5 hours, they were allowed to stand at room temperature for 15 min. To this was added 10 uL of Steady-Glo substrate reagent and shake assay plate for 5 min at 1500 rpm. The assay plate was allowed to sit for 30 min at room temperature and then the plate was read on EnVision.
For the compound `CN1CCC(NC(=O)C2CN(c3ccc(C#N)c4ncccc34)CC(F)(F)C2)CC1` (centres unmarked) [Compound 530, 1-(8-Cyano-quinolin-5-yl)-5,5-difluoro-piperidine-3-carboxylic acid (1-methyl-piperidin-4-yl)-amide], the IC50 was < 1000 nM. Turning to `C[C@H]1C[C@@H](NC(=O)CN(C)C)CN(c2ncc(F)c3nccnc23)C1` [Compound 460, 2-Dimethylamino-N-[(3R,5S)-1-(8-fluoro-pyrido[3,4-b]pyrazin-5-yl)-5-methyl-piperidin-3-yl]-acetamide], the IC50 is > 10000 nM.

On to `CC1CC(C(=O)N2CCN(C)CC2)CN(c2ccc(C(F)(F)F)c3ncccc23)C1` (centres unmarked) [Compound 549, (4-Methyl-piperazin-1-yl)-[5-methyl-1-(8-trifluoromethyl-quinolin-5-yl)-piperidin-3-yl]-methanone], for which the IC50 fell in the range of 1000 to 10000 nM.

Take `N[C@H]1C[C@@H](C2CC2)CN(c2ccc(C(F)(F)F)c3nccnc23)C1` (relative stereo) [Compound 330, cis-5-cyclopropyl-1-[8-(trifluoromethyl)quinoxalin-5-yl]piperidin-3-amine]: the IC50 is < 1000 nM.

With `C[C@H]1C[C@@H](NC(=O)CC2CCCN(C)C2)CN(c2ccc(C(F)F)c3ncccc23)C1` (stereo partly drawn) [Compound 303, N-[(3R,5S)-1-[8-(difluoromethyl)quinolin-5-yl]-5-methylpiperidin-3-yl]-2-(1-methylpiperidin-3-yl)acetamide], the IC50 is < 1000 nM. For `CCN(CC)CC(=O)NCC1CCN(c2ccc(C#N)c3ncncc23)CC1` [Compound 395, N-[1-(8-Cyano-quinazolin-5-yl)-piperidin-4-ylmethyl]-2-diethylamino-acetamide] the value was 1000 to 10000 nM; for `C[C@@H]1CN(c2ccnc3nccnc23)C[C@H](CN2CCN(C)CC2)O1` [Compound 47, (2R,6S)-2-methyl-6-((4-methylpiperazin-1-yl)methyl)-4-(pyrido[2,3-b]pyrazin-8-yl)morpholine], 1000 to 10000 nM; for `CC(C)N1CCC(CC(=O)N[C@@H]2C[C@H](C(F)(F)F)CN(c3ccc(C#N)c4ncccc34)C2)CC1` [Compound 585, N-[(3R,5S)-1-(8-Cyano-quinolin-5-yl)-5-trifluoromethyl-piperidin-3-yl]-2-(1-isopropyl-piperidin-4-yl)-acetamide], < 1000 nM. On to `N#Cc1ccc(N2C[C@@H](NC(=O)CN3CCOCC3)C[C@@H](C(F)(F)F)C2)c2cccnc12` (racemic) [Compound 424, cis-N-[1-(8-Cyano-quinolin-5-yl)-5-trifluoromethyl-piperidin-3-yl]-2-morpholin-4-yl-acetamide], for which the IC50 was in the range of 1000 to 10000 nM. Next, `CN1CCC(CC(=O)NC2CN(c3ccc(C#N)c4nccnc34)CC(F)(F)C2)CC1` (single isomer, unassigned) [Compound 523]: < 1000 nM. `C[C@H]1C[C@@H](NC(=O)C2CC(F)(F)C2)CN(c2ccc(C(F)(F)F)c3nccnc23)C1` [Compound 257, 3,3-difluoro-N-[(3R,5S)-5-methyl-1-[8-(trifluoromethyl)quinoxalin-5-yl]piperidin-3-yl]cyclobutane-1-carboxamide]: the IC50 lay in the range of 1000 to 10000 nM. With `CCN1CCC[C@H]1C(=O)NC1CC(C(F)(F)F)CN(c2ccc(C#N)c3ncccc23)C1` (single isomer, unassigned) [Compound 437], the IC50 lay within 1000 to 10000 nM. Take `COc1ccc(N2C[C@@H](C)C[C@@H](NC(=O)C(O)C(C)C)C2)c2nccnc12` (stereo in doubt) [Compound 201, (2R)-2-hydroxy-N-[(3R,5S)-1-(8-methoxyquinoxalin-5-yl)-5 methylpiperidin-3-yl]-3-methylbutanamide]: the IC50 was in the range of 1000 to 10000 nM. Regarding `CC(C(=O)N[C@@H]1C[C@H](C)CN(c2ccc(C(F)F)c3nccnc23)C1)N1CCC(O)CC1` (stereo partly drawn) [Compound 325, N-[(3R,5S)-1-[8-(difluoromethyl)quinoxalin-5-yl]-5-methylpiperidin-3-yl]-2-(4-hydroxypiperidin-1-yl)propanamide], the IC50 fell in the range of 1000 to 10000 nM. For `N#Cc1ccc(N2CC(NC(=O)CC3(O)CCCCC3)CC(C(F)(F)F)C2)c2cccnc12` (racemic) [Compound 491], the IC50 is < 1000 nM. On to `CC(C)[C@H](O)C(=O)NC1CC(C2CC2)CN(c2ccc(C#N)c3nccnc23)C1` (single isomer, unassigned) [Compound 173], for which the IC50 was in the range of 1000 to 10000 nM. As to `CN1CC(CC(=O)NC2CC(C(F)(F)F)CN(c3ccc(C#N)c4ncccc34)C2)C1` (racemic) [Compound 490, cis-N-[(1-(8-Cyano-quinolin-5-yl)-5-trifluoromethyl-piperidin-3-yl]-2-(1-methyl-azetidin-3-yl)-acetamide], the IC50 is < 1000 nM.

Consider `CCN(CC)CCNCC1CCN(c2cc(C)nc3ccc(F)cc23)CC1` [Compound 374, N,N-diethyl-N′-[1-(6-fluoro-2-methyl-quinolin-4-yl)-piperidin-4-ylmethyl]-ethane-1,2-diamine], for which the IC50 was in the range of 1000 to 10000 nM.

Turning to `C[C@H]1C[C@@H](N)CN(c2ccc(F)c3ncccc23)C1` [Compound 341, (3R,5S)-1-(8-fluoroquinolin-5-yl)-5-methylpiperidin-3-amine], the IC50 is < 1000 nM.

Regarding `CNC(=O)CCC(=O)N[C@@H]1C[C@H](C)CN(c2cnc(C)c3ncccc23)C1` [Compound 565, N-Methyl-N′-[(3R,5S)-5-methyl-1-(8-methyl-[1,7]naphthyridin-5-yl)-piperidin-3-yl]-succinamide], the IC50 is 1000 to 10000 nM. Next, `C[C@H]1C[C@@H](NC(=O)CC2CNC2)CN(c2ccc(C(F)F)c3nccnc23)C1` [Compound 324, 2-(azetidin-3-yl)-N-[(3R,5S)-1-[8-(difluoromethyl)quinoxalin-5-yl]-5-methylpiperidin-3-yl]acetamide]: 1000 to 10000 nM. Next, `COCCN[C@@H]1C[C@H](C)CN(c2ccc(C(F)F)c3ncccc23)C1` [Compound 206, (3R,5S)-1-[8-(difluoromethyl)quinolin-5-yl]-N-(2-methoxyethyl)-5-methylpiperidin-3-amine]: < 1000 nM.

As to `C[C@H]1C[C@@H](NCC(N)=O)CN(c2ccc(C#N)c3nccnc23)C1` [Compound 122, 2-[[(3R,5S)-1-(8-cyanoquinoxalin-5-yl)-5-methylpiperidin-3-yl]amino]acetamide], the IC50 is < 1000 nM. For the compound `C[C@H]1C[C@@H](NC(=O)CC2CNC2)CN(c2ccc(C#N)c3nccnc23)C1` [Compound 274, 2-(azetidin-3-yl)-N-[(3R,5S)-1-(8-cyanoquinoxalin-5-yl)-5-methylpiperidin-3-yl]acetamide], the IC50 is < 1000 nM. With `C[C@H]1C[C@@H](NC(=O)NCCN(C)C)CN(c2ccc(C(F)(F)F)c3ncccc23)C1` [Compound 477, 1-(2-Dimethylamino-ethyl)-3-[(3R,5S)-5-methyl-1-(8-trifluoromethyl-quinolin-5-yl)-piperidin-3-yl]-urea], the IC50 is < 1000 nM. As for `C[C@H]1C[C@@H](NC(=O)C2(N)COC2)CN(c2ccc(C#N)c3nccnc23)C1` [Compound 129, 3-amino-N-[(3R,5S)-1-(8-cyanoquinoxalin-5-yl)-5-methylpiperidin-3-yl]oxetane-3-carboxamide], the IC50 was in the range of 1000 to 10000 nM.

For the compound `CN1CCC(CNC(=O)C2CN(c3ccc(C#N)c4ncccc34)CC(F)(F)C2)CC1` (centres unmarked) [Compound 531, 1-(8-Cyano-quinolin-5-yl)-5,5-difluoro-piperidine-3-carboxylic Acid (1-methyl-piperidin-4-ylmethyl)-amide], the IC50 was < 1000 nM.

Regarding `C[C@H]1C[C@@H](NC(=O)C2(C)COC2)CN(c2ccc(C#N)c3nccnc23)C1` [Compound 36, N-((3R,5S)-1-(8-cyanoquinoxalin-5-yl)-5-methylpiperidin-3-yl)-3-methyloxetane-3-carboxamide], the IC50 was in the range of 1000 to 10000 nM.

In the case of `CCN(CC)C(=O)CCC(=O)N[C@@H]1C[C@H](C)CN(c2ccc(C(F)(F)F)c3ncccc23)C1` [Compound 575, N,N-Diethyl-N′-[(3R,5S)-5-methyl-1-(8-trifluoromethyl-quinolin-5-yl)-piperidin-3-yl]-succinamide], the IC50 is 1000 to 10000 nM.
